# Where two headings read alike, the source gives them in different places.
# What was measured:
# [1] = target: T1, hP2X2/3H (Homo sapiens, UniProt P56373+Q9UBL9); assay: Calcium uptake assay (P2X antagonist assay), P2X2/3 heteromer; type: cell-based; details: hP2X2/3H
# T1 construct: expressed in transfected cells; host or cells: e.g. HEK293 or 1321N1
# T1 sequence (Q9UBL9 1-471): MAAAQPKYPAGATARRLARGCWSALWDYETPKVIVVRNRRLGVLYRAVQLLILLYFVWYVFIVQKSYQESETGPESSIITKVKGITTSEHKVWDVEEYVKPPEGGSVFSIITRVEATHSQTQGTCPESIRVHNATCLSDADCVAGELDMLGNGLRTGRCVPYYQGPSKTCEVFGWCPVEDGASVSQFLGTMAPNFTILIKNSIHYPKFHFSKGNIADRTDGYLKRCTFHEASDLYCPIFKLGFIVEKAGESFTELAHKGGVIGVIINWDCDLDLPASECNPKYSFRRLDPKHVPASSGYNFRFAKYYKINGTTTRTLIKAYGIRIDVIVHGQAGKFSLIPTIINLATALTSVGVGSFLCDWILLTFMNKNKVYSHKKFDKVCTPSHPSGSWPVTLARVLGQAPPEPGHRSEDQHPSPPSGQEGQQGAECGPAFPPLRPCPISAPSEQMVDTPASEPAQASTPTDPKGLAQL
# T1 sequence (P56373 1-397): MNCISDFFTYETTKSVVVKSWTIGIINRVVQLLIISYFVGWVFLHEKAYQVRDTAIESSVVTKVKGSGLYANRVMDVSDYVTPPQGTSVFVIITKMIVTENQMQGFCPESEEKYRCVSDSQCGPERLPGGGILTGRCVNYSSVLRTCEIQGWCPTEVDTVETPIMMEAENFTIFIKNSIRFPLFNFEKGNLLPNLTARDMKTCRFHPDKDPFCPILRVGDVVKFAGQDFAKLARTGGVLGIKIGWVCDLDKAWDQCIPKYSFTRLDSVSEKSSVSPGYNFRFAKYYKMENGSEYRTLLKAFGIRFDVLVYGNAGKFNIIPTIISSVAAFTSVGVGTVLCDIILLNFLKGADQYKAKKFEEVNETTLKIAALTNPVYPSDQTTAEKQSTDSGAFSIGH
# Method in brief: (§1)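 Stably or transiently transfected HEK293 or 1321N1 cells; the heteromer is made by adding P2X3 to a P2X2-stable line, with heteromer function isolated pharmacologically. The peak-minus-baseline FLIPR calcium signal gives % inhibition and a 4-parameter-logistic IC50.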
# [2] = target: T2, hP2X3 (Homo sapiens, UniProt P56373); assay: Calcium uptake assay (P2X antagonist assay), P2X3 homomer; type: cell-based; details: hP2X3
# T2 construct: expressed in transfected cells; host or cells: e.g. HEK293 or 1321N1
# T2 sequence (P56373 1-397): T1 sequence (P56373 1-397)
# Method in brief: as §1
# [3] = Ca influx (calcium uptake assay), read-out: IC50 hP2X2/3H
# [4] = Ca influx (calcium uptake assay), read-out: IC50 hP2X3
# [5] = calcium uptake assay, read-out: IC50 hP2X2/3H (nM), Ca Influx
# [6] = calcium uptake assay, read-out: IC50 hP2X3 (nM), Ca Influx
SMILES,"IC50 [1, 3] [nM]","IC50 [2, 4] [nM]","IC50 [1, 5] [nM]","IC50 [2, 6] [nM]"
Cc1ccc(-c2cc(C(=O)NCc3ccc(C)nc3)cc(C(O)c3ccccc3)c2)cc1 (stereo not drawn) [Compound 228],100 to 500,100 to 500,–,–
Cc1ccc(-c2cc(C(=O)N[C@H](C)c3ccc(C)nc3)cc(C(O)c3nccs3)c2)c(C#N)c1 (stereo partly drawn) [Compound 294],< 100,< 100,–,–
"COCCOc1cc(C(=O)NCc2ccc(C)nc2)cc(-c2ccc(C)cc2)c1 [Compound 248, 5-(2-Methoxyethoxy)-4′-methyl-N-((6-methylpyridin-3-yl)methyl)biphenyl-3-carboxamide]",< 100,< 100,–,–
COc1ncc(CNC(=O)c2cc(C(=O)N3CCCC3)cc(-c3ccc(C)cc3)c2)cn1 [Compound 48],–,–,< 100,< 100
Cc1ccc(-c2cc(C(=O)NCc3ccc4c(c3)S(=O)(=O)CC4)cc(C(=O)N3CCCC3)c2)cc1 [Compound 72],–,–,< 100,< 100
Cc1ncc(CNC(=O)c2cc(C(=O)N3CCCC3)cc(-c3ccc(F)cc3F)c2)cn1 [Compound 53],–,–,> 1000,100 to 500
Cc1ncc(CNC(=O)c2cc(C(=O)N3CCCC3)cc(-c3ccc(F)cn3)c2)cn1 [Compound 99],–,–,> 1000,> 1000
"Cc1ccc(-c2cc(OC(F)(F)F)cc(C(=O)NCc3ccc(C)nc3)c2)nc1 [Compound 220, 3-(5-Methylpyridin-2-yl)-N-((6-methylpyridin-3-yl)methyl)-5-(trifluoromethoxy)benzamide]",> 1000,100 to 500,–,–
Cc1ccc(-c2cc(C(=O)NC(c3ccc(C)nc3)C(F)(F)F)cc(S(C)(=O)=O)c2)cc1 (stereo not drawn) [Compound 213],> 1000,> 1000,–,–
Cc1ccc(-c2cc(Oc3ncccn3)cc(C(=O)N[C@H](C)c3cnc(C)nc3)c2)cc1 [Compound 235],100 to 500,< 100,–,–
Cc1ncc(CNC(=O)c2cc(C(=O)N3CCCC3)cc(-c3ccc(Br)cc3)c2)cn1 [Compound 215],100 to 500,< 100,–,–
"Cc1ccc(-c2cc(C(=O)NCc3ccc(C)nc3)cc(C(=O)N3CCc4ccccc4C3)c2)cc1 [Compound 187, 4′-Methyl-N-((6-methylpyridin-3-yl)methyl)-5-(1,2,3,4-tetrahydroisoquinoline-2-carbonyl)biphenyl-3-carboxamide]",–,–,100 to 500,100 to 500
"Cc1ccc(-c2cc(C(=O)N[C@H](C)c3ccc(C(F)(F)F)nc3)cc(C(=O)N(C)CC(C)C)c2)cc1 [Compound 10, (R)—N3-Isobutyl-N3,4′-dimethyl-N5-(1-(6-(trifluoromethyl)pyridin-3-yl)ethyl)biphenyl-3,5-dicarboxamide]",–,–,100 to 500,100 to 500
"Cc1ccc(-c2cc(C(=O)NC(C)c3ccc(Cl)c(S(C)(=O)=O)c3)cc(C(=O)N3CCCC3)c2)cc1 (stereo not drawn) [Compound 45, N-(1-(4-Chloro-3-(methylsulfonyl)phenyl)ethyl)-4′-methyl-5-(pyrrolidine-1-carbonyl)biphenyl-3-carboxamide]",–,–,< 100,100 to 500
Cc1ccc(-c2cc(C(=O)N[C@H](C)c3ccc(C(F)(F)F)nc3)cc(C(=O)N3CCC3)c2)cc1 [Compound 75],–,–,< 100,< 100
COc1ncc(CNC(=O)c2cc(-c3ccc(C)cc3)cc(S(C)(=O)=O)c2)cn1 [Compound 115],–,–,100 to 500,< 100
Cc1ccc(-c2cc(OC3CCOC3)cc(C(=O)N[C@H](C)c3ccc(C)nc3)c2)c(C#N)c1 (stereo partly drawn) [Compound 314],< 100,< 100,–,–
CCCS(=O)(=O)c1cc(C(=O)NCc2ccn3ccnc3c2)cc(-c2ccc(C)cc2)c1 [Compound 57],–,–,< 100,< 100
"Cc1ccc(-c2cc(C(=O)NCc3cnc(C)nc3)cc(C(=O)N3CC(O)C3)c2)cc1 [Compound 29, 5-(3-Hydroxyazetidine-1-carbonyl)-4′-methyl-N-((2-methylpyrimidin-5-yl)methyl)biphenyl-3-carboxamide]",–,–,< 100,< 100
"Cc1ccc(-c2cc(C(=O)NCc3ccc(C)nc3)cc(C(=O)N3C[C@H]4CNC[C@H]4C3)c2)cc1 [Compound 140, 4′-Methyl-N-((6-methylpyridin-3-yl)methyl)-5-((3aR,6aS)-octahydropyrrolo[3,4-c]pyrrole-2-carbonyl)biphenyl-3-carboxamide]",–,–,100 to 500,100 to 500

SMILES,"IC50 [1, 3] [nM]","IC50 [2, 4] [nM]","IC50 [1, 5] [nM]","IC50 [2, 6] [nM]"
"Cc1ccc(-c2cc(C(=O)N[C@H](C)c3ccc(C(F)(F)F)nc3)cc(S(C)(=O)=O)c2)nc1 [Compound 181, (R)-3-(5-Methylpyridin-2-yl)-5-(methylsulfonyl)-N-(1-(6-(trifluoromethyl)pyridin-3-yl)ethyl)benzamide]",–,–,100 to 500,< 100
"Cc1ccc(-c2cc(C(=O)N[C@H](C)c3ccc(C)nc3)cc(C(O)c3ccccc3)c2)cc1 (stereo partly drawn) [Compound 227, 5-(Hydroxy(phenyl)methyl)-4′-methyl-N—((R)-1-(6-methylpyridin-3-yl)ethyl)biphenyl-3-carboxamide]",< 100,100 to 500,–,–
Cc1ccc(-c2cc(C(=O)N[C@H](C)c3ccc(C)nc3)cc(C(O)c3ccccc3)c2)c(C#N)c1 (stereo partly drawn) [Compound 279],< 100,< 100,–,–
Cc1ccc(-c2cc(C(=O)N[C@H](C)c3ccc(C)nc3)cc(C(C)O)c2)c(C#N)c1 (stereo partly drawn) [Compound 311],< 100,< 100,–,–
Cc1ccc(-c2cc(C(=O)N[C@@H](C)CO)cc(S(=O)(=O)CC(C)C)c2)cc1 [Compound 281],> 1000,< 100,–,–
Cc1ccc(-c2cc(C(=O)NCc3ccc(C)nc3)cc(C(O)C(F)(F)F)c2)c(C#N)c1 (stereo not drawn) [Compound 296],< 100,< 100,–,–
Cc1ccc(-c2cc(C(=O)N[C@H](C)c3ccc(C)nc3)cc(C(O)c3cncn3C)c2)cc1 (stereo partly drawn) [Compound 330],< 100,< 100,–,–
COCC(C)Oc1cc(C(=O)N[C@H](C)c2ccc(C)nc2)cc(-c2ccc(C)cc2)c1 (stereo partly drawn) [Compound 299],< 100,< 100,–,–
"Cc1ccc(-c2cc(Oc3nccs3)cc(C(=O)N[C@H](C)c3ccc(C)nc3)c2)nc1 [Compound 264, (R)-3-(5-Methylpyridin-2-yl)-N-(1-(6-methylpyridin-3-yl)ethyl)-5-(thiazol-2-yloxy)benzamide]",< 100,< 100,–,–
Cc1ccc(-c2cc(OC3CCOC3)cc(C(=O)N[C@H](C)c3cnc(C)nc3)c2)nc1 (stereo partly drawn) [Compound 357],100 to 500,< 100,–,–
"Cc1ccc(-c2cc(Oc3ncccn3)cc(C(=O)N[C@H](C)c3ccc(C)nc3)c2)cc1 [Compound 232, (R)-4′-Methyl-N-(1-(6-methylpyridin-3-yl)ethyl)-5-(pyrimidin-2-yloxy)biphenyl-3-carboxamide]",< 100,< 100,–,–
Cc1ncc([C@@H](C)NC(=O)c2cc(-c3ccccc3)cc(S(C)(=O)=O)c2)cn1 [Compound 370],501 to 1000,< 100,–,–
COCC(C)Oc1cc(C(=O)NCc2ccc(C)nc2)cc(-c2ccc(C)cc2)c1 (stereo not drawn) [Compound 300],< 100,< 100,–,–
"Cc1ccc(-c2cc(C(=O)N[C@@H](C)CO)cc(C(=O)N(C)CC(C)C)c2)cc1 [Compound 1, (S)—N-(1-Hydroxypropan-2-yl)-N-isobutyl-N,4′-dimethylbiphenyl-3,5-dicarboxamide]",–,–,100 to 500,< 100
Cc1ccc(-c2cc(OC3COCC3O)cc(C(=O)N[C@H](C)c3cnc(C)nc3)c2)c(C#N)c1 (stereo partly drawn) [Compound 363],< 100,< 100,–,–
Cc1ccc(-c2cc(C(=O)NCc3ccc(C)nc3)cc(C(=O)N3C(C)CCC3C)c2)cc1 (stereo not drawn) [Compound 189],–,–,< 100,< 100
"Cc1ccc(-c2cc(C(=O)NCc3ccc(C)nc3)cc(C(O)CN3CCOCC3)c2)cc1 (stereo not drawn) [Compound 365, 5-(1-Hydroxy-2-morpholinoethyl)-4′-methyl-N-((6-methylpyridin-3-yl)methyl)biphenyl-3-carboxamide]",< 100,< 100,–,–
CCOC(=O)c1cc(C(=O)NCc2ccc(C)nc2)cc(-c2ccc(C)cc2)c1 [Compound 88],–,–,< 100,100 to 500
COCCOc1cc(C(=O)NCc2cnc(C)nc2)cc(-c2ccc(C)cc2C#N)c1 [Compound 262],100 to 500,< 100,–,–

# Source: patent US8946439B2, “Amide compounds, compositions and uses thereof” (Evotec AG, priority 2008, dated 2015)
